# Experimental data taken from patent US20240216444A1, “DESIGNED BACTERIAL COMPOSITIONS” (Seres Therapeutics, Inc., priority 2015, published 2024).
# Read-outs that look alike come from different tables or passages of the source.
# What was measured:
# [1] = Indole spot test of supernatants on paper soaked with Indole Reagent; details: 4 μL spotted on paper soaked with Indole Reagent
# [2] = tested on: 7α-dehydroxylation of cholic acid and chenodeoxycholic acid; assay: LC-MS screen for 7α-dehydroxylation (7α-OH) activity; assay type: biochemical
# [3] = tested on: HSDH activity (7-, 3- or 12-hydroxyl groups) on cholic, chenodeoxycholic, deoxycholic and lithocholic acid; assay: LC-MS screen for hydroxysteroid dehydrogenase (HSDH) activity; assay type: biochemical
# [4] = biological target: HDAC enzymes (HeLa nuclear extract); assay: HDAC-Glo I/II assay with serial dilutions of SCFAs; assay type: biochemical; details: for HDAC inhibition activity at the highest tested concentration: 3.75 mM
# Experimental: For this experiment, the HeLa nuclear extract provided in the kit was used as the source of HDAC enzymes. […] In this assay, deacetylation of the provided substrate by HDACs results in a luminescence signal that is detected with a suitable plate reader (Spectramax m5). HDAC inhibition decreases the luminescence signal compared to the no inhibitor control. The experiment was carried out according to the manufacturer's instructions as follows: 50 μL of HeLa nuclear extract diluted 1:3000 in assay buffer was mixed with 50 μL of inhibitor solution (serial dilutions of SCFAs in assay buffer) and incubated for 30 minutes. 100 μL of developer solution were added to each well, and luminescence was measured after 45 minutes of incubation at room temperature.
# [5] = tested on: bile salt hydrolase (BSH) activity on conjugated bile acids; assay: LC-MS screen for bile salt hydrolase (BSH) activity; details: for BSH gCA: substrate gCA; for BSH gCDCA: substrate gCDCA; for BSH t-aMCA: substrate t-aMCA; for BSH t-bMCA: substrate t-bMCA; for BSH tCA: substrate tCA; for BSH tCDCA: substrate tCDCA
# Experimental: To conduct the assay, briefly, bacteria were grown on permissive agar media plates for 24 to 48 hours to generate sufficient biomass to carry out assays. The bacterial lawns were resuspended in PBS to create a homogenous suspension that was then used for the BSH assay. To assay for BSH activity, bacterial suspensions were incubated with two separate mixtures of four distinct conjugated bile acids, each at concentration of 150 μg/ml, for 4 hours at 37° C. under anaerobic conditions. The reaction mixture was then extracted with an equal volume of acetonitrile, spun down to pellet bacteria and the supernatant filtered through a 0.2 μM filter to generate a sample for LC-MS analysis. Bile acids were determined using an Agilent 1260 HPLC coupled to a Bruker Compact qTOF MS. Samples were run on a bidentate C18 column using an acetonitrile:water buffer system to separate bile acids which were then ionized in negative mode and identified using a qTOF-MS. BSH activity was determined by the formation of deconjugated bile acid products that were verified by comparison to known standards and quantified, if necessary, using standard curves.
# [6] = tested on: C. difficile carbon sources; assay: Carbon source utilization, 87 carbon sources in three base media, OD600 and acid production (Example 3B); assay type: cell-based; design: key: “+” and “w” refer to “positive” and “weak” utilization of the carbon source, respectively; “+” and “w” refer to “positive” and “weak” utilization of the carbon source, respectively
# Excerpt: Three C. difficile strains and 12 non-C. difficile bacterial strains were profiled using a panel of carbon sources. As used herein, unless otherwise indicated, carbon sources includes all sources tested as growth substrates in the experiments herein. The three C. difficile strains were Clostridium difficile ATCC 9689, Clostridium difficile ATCC 43593, and Clostridium difficile ATCC 43255, all of which are available from the American Type Culture Collection (ATCC).
# Growth of the strains was tested on 87 different carbon sources in a 96-well plate format. The panel contained 34 carbon sources reported to be utilized by C. difficile in the literature (Hafiz and Oakley. 1976 J Med Microbiol 9:129-36; Wilson and Perini. 1988 Infection and Immunity 56:2610-14; Bergey and Holt. Bergey's Manual of Determinative Bacteriology. Baltimore: Williams & Wilkins, 1994; Sebaihia et al. 2006 Nature Genetics 38:779-786) including amino acids, mono-, di-, tri- and polysaccharides, glucoside and sugar alcohols. Carbon sources were added at 0.5% into three different base media (Base medium 1 SSNC composition: beef extract 1 g/L, yeast extract 2 g/L, bacto soytone 6 g/L, NaCl 4 g/L, KH2PO4 5.44 g/L, MgSO4 2 mM, CaCl2 1 mM, MnCl2 0.1 mM, cysteine hydrochloride 0.25 g/L, hemin 10 mg/L, menadione 1 mg/L, MOPS 6.3 g/L, pH 7; Base medium 2 SPOSCR composition: beef extract 1 g/L, yeast extract 2 g/L, bacto soytone 6 g/L, NaCl 4 g/L, KH2PO4 5.44 g/L, MgSO4 2 mM, CaCl2) 1 mM, MnCl2 0.1 mM, cysteine hydrochloride 0.25 g/L, hemin 10 mg/L, menadione 1 mg/L, MOPS 8.4 g/L, NaHCO3 0.4%, pH 7; Base medium 3 YCFA: casitone 10 g/L, yeast extract 2.5 g/L, cysteine hydrochloride 1 g/L, hemin 10 mg/L, ATCC vitamin solution 10 mL/L, ATCC trace element solution 10 mL/L, K2HPO4 0.45 g/L, KH2PO4 0.45 g/L, (NH4)2SO4 0.9 g/L, MgSO4×7H2O 90 mg/L, CaCl2) 90 mg/L, acetic acid 33 mM, propionic acid 9 mM, isobutyric acid 1 mM, isovaleric acid 1 mM, valeric acid 1 mM, pH 7).
# Positive growth was scored by measuring optical density at 600 nm and comparing it to growth in base medium without an added carbon source. For two, base media acid production was also scored by measuring optical density at 558 nm of pH-indicator phenol red mixed with spent medium from each culture.
# [7] = LC-MS, substrate chenodeoxycholic acid
compound,measurement,setting,value
O=C(O)CCc1c[nH]c2ccccc12 [indole-3-propionic acid],colour in indole spot test,[1],purple spots
Clostridium butyricum,7a Dehydrox CA,[2],−
same,7a Dehydrox CDCA,[2],−
same,HSDH 3a,[3],−
same,HSDH 12a,[3],−
NCCc1c[nH]c2ccccc12 [tryptamine],colour in indole spot test,[1],purple spots
CCC(=O)O [propionate],IC50,"[4]; HeLa nuclear extract, HDAC-Glo I/II, read-out: HDAC inhibition IC50",2400 µM
Blautia producta,7a Dehydrox CA,"[2]; LC-MS, substrate CA",−
same,7a Dehydrox CDCA,"[2]; LC-MS, substrate CDCA",−
same,HSDH 3a,[3]; LC-MS,−
same,HSDH 7a,[3]; LC-MS,−
same,HSDH 12a,[3]; LC-MS,−
same,BSH gCA,[5],−
same,BSH gCDCA,[5],−
same,BSH t-aMCA,[5],−
same,BSH t-bMCA,[5],−
same,BSH tCA,[5],−
same,BSH tCDCA,[5],−
same,utilization of carbon source Apple pectin,[6]; Apple pectin,+
same,utilization of carbon source Citrus pectin,[6]; Citrus pectin,+
same,utilization of carbon source NAG,[6]; NAG (N-acetylglucosamine),+
same,utilization of carbon source alanine,[6]; alanine,+
same,utilization of carbon source asparagine,[6]; asparagine,+
same,utilization of carbon source cellobiose,[6]; cellobiose,+
same,utilization of carbon source cysteine,[6]; cysteine,w
same,utilization of carbon source dulcitol,[6]; dulcitol,+
same,utilization of carbon source esculin,[6]; esculin,+
same,utilization of carbon source formate,[6]; formate,+
same,utilization of carbon source fructose,[6]; fructose,+
same,utilization of carbon source glucose,[6]; glucose,+
same,utilization of carbon source glutamine,[6]; glutamine,w
same,utilization of carbon source glycochenodeoxycholate,[6]; glycochenodeoxycholate,w
same,utilization of carbon source mannitol,[6]; mannitol,+
same,utilization of carbon source mannose,[6]; mannose,+
same,utilization of carbon source melezitose,[6]; melezitose,+
same,utilization of carbon source oxalate,[6]; oxalate,w
same,utilization of carbon source polygalacturonate,[6]; polygalacturonate,+
same,utilization of carbon source rhamnose,[6]; rhamnose,+
same,utilization of carbon source ribose,[6]; ribose,+
same,utilization of carbon source salicin,[6]; salicin,+
same,utilization of carbon source serine,[6]; serine,+
same,utilization of carbon source sialic acid,[6]; sialic acid,+
same,utilization of carbon source sorbitol,[6]; sorbitol,+
same,utilization of carbon source sucrose,[6]; sucrose,+
same,utilization of carbon source taurochenodeoxycholate,[6]; taurochenodeoxycholate,w
same,utilization of carbon source threonine,[6]; threonine,w
same,utilization of carbon source trehalose,[6]; trehalose,+
same,utilization of carbon source xylitol,[6]; xylitol,+
same,utilization of carbon source xylose,[6]; xylose,+
Clostridium sp_7_2_43FAA,7a Dehydrox CDCA,[2]; [7],−
same,7a Dehydrox CA,"[2]; LC-MS, substrate cholic acid",−
same,HSDH 3a,"[3]; LC-MS, 3a-HSDH","+/− (‘+/−’ indicates ≤50-fold change in product bile acid levels, suggesting weak activity)"
same,HSDH 7a,"[3]; LC-MS, 7a-HSDH","+ (‘+’ indicates greater than 50-fold increase in levels of product bile acid, suggesting strong activity)"
same,HSDH 12a,"[3]; LC-MS, 12a-HSDH",−
CC(O)C(=O)O (centres unmarked) [Lactate],HDAC inhibition activity at the highest tested concentration,[4],minimal HDAC inhibition activity
Cc1c[nH]c2ccccc12 [3-methyl-indole],colour in indole spot test,[1],purple spots
"c1ccc2[nH]ccc2c1 [Indole, indole]",colour in indole spot test,[1],light blue color
Clostridium_sordellii,7a Dehydrox CDCA,[2]; [7],−
same,7a Dehydrox CA,"[2]; LC-MS, substrate cholic acid",−
same,HSDH 3a,"[3]; LC-MS, 3a-HSDH","+/− (‘+/−’ indicates ≤50-fold change in product bile acid levels, suggesting weak activity)"
same,HSDH 7a,"[3]; LC-MS, 7a-HSDH",−
same,HSDH 12a,"[3]; LC-MS, 12a-HSDH",−
same,BSH gCA,[5],"+ (‘+’ indicates greater than 50-fold increase in levels of product bile acid, suggesting strong activity)"
same,BSH gCDCA,[5],"+ (‘+’ indicates greater than 50-fold increase in levels of product bile acid, suggesting strong activity)"
same,BSH t-aMCA,[5],"+ (‘+’ indicates greater than 50-fold increase in levels of product bile acid, suggesting strong activity)"
same,BSH t-bMCA,[5],"+ (‘+’ indicates greater than 50-fold increase in levels of product bile acid, suggesting strong activity)"
same,BSH tCA,[5],"+ (‘+’ indicates greater than 50-fold increase in levels of product bile acid, suggesting strong activity)"
same,BSH tCDCA,[5],"+ (‘+’ indicates greater than 50-fold increase in levels of product bile acid, suggesting strong activity)"
O=C(O)CCCc1c[nH]c2ccccc12 [indole-3-butyric acid],colour in indole spot test,[1],purple spots
Clostridium symbiosum,7a Dehydrox CDCA,[2]; [7],−
same,7a Dehydrox CA,"[2]; LC-MS, substrate cholic acid",−
same,HSDH 3a,"[3]; LC-MS, 3a-HSDH","+/− (‘+/−’ indicates ≤50-fold change in product bile acid levels, suggesting weak activity)"
same,HSDH 7a,"[3]; LC-MS, 7a-HSDH","+ (‘+’ indicates greater than 50-fold increase in levels of product bile acid, suggesting strong activity)"
same,HSDH 12a,"[3]; LC-MS, 12a-HSDH",−
same,BSH gCA,[5],"+/− (‘+/−’ indicates ≤50-fold change in product bile acid levels, suggesting weak activity)"
same,BSH gCDCA,[5],"+ (‘+’ indicates greater than 50-fold increase in levels of product bile acid, suggesting strong activity)"
same,BSH t-aMCA,[5],−
same,BSH t-bMCA,[5],−
same,BSH tCA,[5],−
same,BSH tCDCA,[5],"+/− (‘+/−’ indicates ≤50-fold change in product bile acid levels, suggesting weak activity)"
Clostridium_glycolicum,BSH gCA,[5],"+ (‘+’ indicates greater than 50-fold increase in levels of product bile acid, suggesting strong activity)"
same,BSH gCDCA,[5],"+ (‘+’ indicates greater than 50-fold increase in levels of product bile acid, suggesting strong activity)"
same,BSH t-aMCA,[5],"+ (‘+’ indicates greater than 50-fold increase in levels of product bile acid, suggesting strong activity)"
same,BSH t-bMCA,[5],"+ (‘+’ indicates greater than 50-fold increase in levels of product bile acid, suggesting strong activity)"
same,BSH tCA,[5],"+ (‘+’ indicates greater than 50-fold increase in levels of product bile acid, suggesting strong activity)"
same,BSH tCDCA,[5],"+ (‘+’ indicates greater than 50-fold increase in levels of product bile acid, suggesting strong activity)"
CC(=O)O [acetate],HDAC inhibition activity at the highest tested concentration,[4],minimal HDAC inhibition activity
Blautia_producta,7a Dehydrox CDCA,[2]; [7],−
same,7a Dehydrox CA,"[2]; LC-MS, substrate cholic acid",−
same,HSDH 3a,"[3]; LC-MS, 3a-HSDH",−
same,HSDH 7a,"[3]; LC-MS, 7a-HSDH",−
same,HSDH 12a,"[3]; LC-MS, 12a-HSDH",−
Clostridium paraputrificum,BSH gCA,[5],"+ (‘+’ indicates greater than 50-fold increase in levels of product bile acid, suggesting strong activity)"
same,BSH gCDCA,[5],"+ (‘+’ indicates greater than 50-fold increase in levels of product bile acid, suggesting strong activity)"
same,BSH t-aMCA,[5],"+ (‘+’ indicates greater than 50-fold increase in levels of product bile acid, suggesting strong activity)"
same,BSH t-bMCA,[5],"+ (‘+’ indicates greater than 50-fold increase in levels of product bile acid, suggesting strong activity)"
same,BSH tCA,[5],"+ (‘+’ indicates greater than 50-fold increase in levels of product bile acid, suggesting strong activity)"
same,BSH tCDCA,[5],"+ (‘+’ indicates greater than 50-fold increase in levels of product bile acid, suggesting strong activity)"
